The values below come from ChEMBL document CHEMBL4342474, “Scaffold and Parasite Hopping: Discovery of New Protozoal Proliferation Inhibitors” (ACS Med Chem Lett, 2020).

For data set [1], the system named is Trypanosoma cruzi. Description: Antitrypanosomal activity against Trypanosoma cruzi Tulahuen trypomastigotes infected in mouse NIH/3T3 cells measured after 96 hrs by beta-galactosidase reporter gene assay. It counts as functional, organism-based. As to conditions: NIH3T3, 96 h.
For data set [2], the system named is Leishmania major. Description: Antileishmanial activity against Leishmania major amastigotes infected in mouse RAW 264.7 cells by luciferase reporter gene assay. Format: functional, organism-based. Conditions: RAW264.7.
A short description of data set [3]: Selectivity index, ratio of TC50 for human HepG2 cells to EC50 for antileishmanial activity against Leishmania major amastigotes infected in mouse RAW 264.7 cells. It counts as toxicity, cell-based.
In data set [4] the test system is Plasmodium falciparum. As to the kind of experiment: Antiplasmodial activity against Plasmodium falciparum D6 measured after 72 hrs by SYBR green fluorescence dye based microplate reader analysis. It counts as functional, organism-based. As to conditions: D6, 72 h.
A short description of data set [5]: Selectivity index, ratio of TC50 for human HepG2 cells to EC50 for antiplasmodial activity against Plasmodium falciparum D6. It counts as toxicity.
Data set [6] relates to Trypanosoma cruzi. Description: Antitrypanosomal activity against Trypanosoma cruzi CaI-72 trypomastigotes infected in mouse C2C12 cells measured after 72 hrs by DAPI staining based assay. It counts as functional, organism-based. Conditions: CaI-72, C2C12, 72 h.
Data set [7] in a line: Selectivity index, ratio of TC50 for mouse C2C12 cells to EC50 for antitrypanosomal activity against Trypanosoma cruzi CaI-72 trypomastigotes infected in mouse C2C12 cells. It counts as toxicity, cell-based.
Data set [8] relates to Leishmania donovani. Description: Antileishmanial activity against Leishmania donovani infected in mouse B10R cells after 72 hrs by DAPI staining based assay. Format: functional, organism-based.
Data set [9] can be described thus: Selectivity index, ratio of TC50 for mouse B10R cells to EC50 for antileishmanial activity against Leishmania donovani infected in mouse B10R cells. Format: toxicity, cell-based.
The test system of data set [10] is Leishmania donovani. As to the kind of experiment: Antileishmanial activity against Leishmania donovani promastigotes infected in BALB/c mouse assessed as effect on parasitemia at 50 mg/kg bid for 14 days and measured after 5 weeks post infection. Format: functional, organism-based.
Data set [11] can be described thus: Aqueous solubility of compound at pH 7.4. Format: physicochemical.
A short description of data set [12]: Protein binding in human plasma. It counts as ADME, cell-free. Conditions: read-out: PPB (converted).
Data set [13] is described as follows: Intrinsic clearance in human liver microsomes assessed as per mg protein. Conditions: for microsomal CLint: liver microsomes, read-out: CLH. It counts as ADME, Microsome.
Data set [14] can be described thus: Intrinsic clearance in rat hepatocytes assessed as per million cells. It counts as ADME, cell-based, Hepatocyte. As to conditions: read-out: CLH.
The nature of data set [15]: Cytotoxicity against human HepG2 cells assessed as reduction in cell viability. Conditions: read-out: TC50 (the source's name). It counts as cell-based.
Data set [16] has as its system Trypanosoma cruzi. As to the kind of experiment: Antitrypanosomal activity against Trypanosoma cruzi Tulahuen amastigotes measured after 96 hrs by beta-galactosidase reporter gene assay. It counts as functional, organism-based.
Data set [17] has as its system Leishmania major. As to the kind of experiment: Antileishmanial activity against Leishmania major. Format: functional, organism-based.
For data set [18], the system named is Plasmodium falciparum. Description: Antiplasmodial activity against Plasmodium falciparum W2 after 72 hrs by SYBR Green fluorescence assay. Format: functional, organism-based. As to conditions: W2, 72 h.
In data set [19] the test system is Plasmodium falciparum. As to the kind of experiment: Antiplasmodial activity against Plasmodium falciparum TM91C235 after 72 hrs by SYBR Green fluorescence assay. It counts as functional, organism-based. Conditions: TM91C235, 72 h.
Data set [20] is described as follows: Cytotoxicity against mouse C2C12 cells assessed as reduction in cell viability. Format: cell-based. Conditions: read-out: TC50 (the source's name).
The subject of data set [21] is Plasmodium falciparum. Description: Antiplasmodial activity against chloroquine-sensitive mefloquine resistant Plasmodium falciparum D6. Format: functional, organism-based.
The mark [22] stands for this setting: aqueous solution, read-out: solubility.

Values after ≈ are worked out from the molar mass of the structure shown. Active and inactive are the calls of the source. The rule behind the calls is not given here.

In the case of `CC(C)(C)OC(=O)N1CCN(c2ncc(-c3ccc4c(Nc5cnccn5)ccnc4c3)cn2)CC1`, the half-maximal effective concentration (EC50) in [1] was > 50 µM; in data set [2], 0.35 µM; in data set [4] it was 0.15 µM. For the same compound, the selectivity ratio in data set [3] was > 89; in [5], > 207.

In the case of `CN1CCN(c2nccc(Nc3ccc4c(Nc5cnccn5)ccnc4c3)n2)CC1`, the EC50 in data set [1] was > 50 µM; in data set [2], 3.3 µM; in data set [4], 0.18 µM.

As to `CN1CCN(c2ncc(-c3ccc4c(Nc5ccc(OCc6cccc(F)c6)c(Cl)c5)ccnc4c3)cn2)CC1`, the EC50 was 0.03 µM in data set [6], > 1.5 µM in data set [2], 0.018 µM in data set [4] and 0.023 µM in [8]. Moreover, the selectivity ratio is 290 in data set [7], 167 in data set [5] and 1740 in [9]. In addition, the outcome in data set [10] was inactive.

In the case of `Cc1ccc2[nH]c3c4ccc(-c5cnc(N6CCCN(C)CC6)nc5)cc4ncc3c2c1`, the EC50 in data set [6] stood at 0.21 µM; in [2] it was 0.44 µM; in [4], 0.037 µM; in [8], 0.64 µM. In addition, the selectivity ratio in data set [7] is 2.4; in data set [3] it was 10; in [5], 127; in data set [9], 3.6.

With `Cc1c(-c2cnc(N3CCN(C)CC3)nc2)ccc2c(Nc3cnccn3)ccnc12`, the EC50 is 25 µM in [1], > 24 µM in data set [2] and 0.069 µM in [4].

Consider `CS(=O)(=O)N1CCN(c2ncc(-c3ccc4c(Nc5cnccn5)ccnc4c3)cn2)CC1`, for which the EC50 in data set [1] is 45 µM; in [2], 0.73 µM; in [4], > 4.3 µM. For the same compound, the selectivity ratio in data set [3] is > 45. Moreover, the solubility in [11] (setting [22]) was 0.06 µM (≈ 0.0278 µg/mL). For the same compound, in data set [12], the fraction unbound is 0.05. In addition, the microsomal CLint in data set [13] worked out at 44 µL/min/mg. In addition, the hepatocyte CLint in [14] is 28 µL/min/1e6 cells. In addition, the CC50 in data set [15] is > 33 µM.

Consider `CN1CCN(c2ccc(-c3ccc4c(Nc5cnccn5)ccnc4c3)cc2)CC1`, for which the EC50 in data set [1] is 6.1 µM; in data set [2], > 23 µM; in data set [4], 0.074 µM.

`CN1CCCN(c2ncc(-c3ccc4/c(=N/c5cnccn5)ccn(C)c4c3)cn2)CC1`: the EC50 in data set [6] is 10 µM; in data set [4], 0.12 µM; in data set [8] it was 0.02 µM. Also, the CLH in [13] (microsomes) amounted to 22 µL/min. Further, in data set [14], the hepatocyte CLint was found to be 13 µL/min/1e6 cells. In data set [10], the result was inactive.

On to `CN1CCN(c2ncc(-c3ccc4c(Nc5cnccn5)ccnc4c3)cn2)CC1`, for which the EC50 was 6 µM in data set [1]; > 15 µM in data set [2]; 0.026 µM in data set [4]; 6 µM in data set [16]; > 15 µM in data set [17]; 0.062 µM in [18]. Besides, in data set [19], the EC50 amounted to 0.037 µM. The compound also showed a solubility in data set [11] (buffer) of […]. Also, the hepatocyte CLint in data set [14] turned out to be 127 µL/min/1e6 cells.

As to `Cc1cc2c(Nc3cnccn3)ccnc2cc1-c1cnc(N2CCN(C)CC2)nc1`, the EC50 in data set [1] was found to be 22 µM; in [2] it was 1.8 µM; in [4] it was 0.18 µM. The selectivity ratio in [3] turned out to be 3.3; in data set [5] it was 33.

Regarding `O=S(=O)(c1ccc(-c2ccc3nccc(N[C@@H]4CCCC[C@H]4O)c3c2)cc1)N1CCOCC1`, the EC50 is 0.33 µM in data set [6], > 22 µM in [2] and 0.4 µM in [4]. For the same compound, the selectivity ratio in data set [7] was > 30; in data set [5] it was > 80. Further, the solubility in data set [11] (setting [22]) is 137 µM (≈ 64.1 µg/mL). In addition, in data set [12], the fraction unbound was 0.28. The microsomal CLint in data set [13] is 43 µL/min/mg. The hepatocyte CLint in data set [14] amounted to 30 µL/min/1e6 cells. Also, the CC50 in data set [20] was > 10 µM.

Consider `CS(=O)(=O)CCNCc1ccc(-c2ccc3ncnc(Nc4ccc(OCc5cccc(F)c5)c(Cl)c4)c3c2)o1` [LAPATINIB], for which the results for the EC50 in [21], in data set [16] and in data set [17] were 0.53 µM, 1.5 µM and > 15 µM, respectively.

For `CN1CCN(c2ncc(Nc3ccc4c(Nc5cnccn5)ccnc4c3)cn2)CC1`, the EC50 in data set [1] amounted to 47 µM; in data set [2] it was 1.7 µM; in data set [4], 0.077 µM. For the same compound, the values for the selectivity ratio in data set [3] and in data set [5] were 14 and 312, respectively.

As to `CN1CCCN(c2ncc(-c3ccc4c(Nc5ccc(OC(F)(F)F)cc5)ccnc4c3)cn2)CC1`, the EC50 in data set [6] is 0.06 µM; in data set [2], 8.2 µM; in data set [4], 0.006 µM; in data set [8] it was 0.085 µM. The selectivity ratio in data set [7] was determined as 38; in data set [3], 0.8; in data set [5], 233; in data set [9], 7.8.

In the case of `CN1CCN(c2ccnc(Nc3ccc4c(Nc5cnccn5)ccnc4c3)n2)CC1`, the values for the EC50 in [1] and in data set [4] were > 20 µM and 0.054 µM, respectively.

Consider `CN1CCCN(c2ccc(-c3ccc4c(Nc5cnccn5)ccnc4c3)cc2)CC1`, for which the EC50 worked out at 0.37 µM in data set [6], 5.5 µM in [2] and 0.01 µM in data set [4]. Also, the values for the selectivity ratio in data set [7], in [3] and in [5] were 1, 1.7 and 960, respectively. In data set [11] (setting [22]), the solubility stood at 4.1 µM (≈ 1.68 µg/mL).

Turning to `CN1CCCN(S(=O)(=O)c2ccc(-c3ccc4c(Nc5ccc(Cl)cn5)ccnc4c3)cc2)CC1`, the EC50 in data set [6] was 0.16 µM; in data set [2] it was 1.3 µM; in data set [4], 0.051 µM; in data set [8], > 10 µM. Moreover, the selectivity ratio in [7] was found to be 21; in [3], 1.4; in data set [5] it was 35.

For the compound `c1cnc(Nc2ccnc3cc(-c4cnc(N5CCNCC5)nc4)ccc23)cn1`, the EC50 in [1] is > 50 µM; in data set [2] it was > 5.2 µM; in data set [4] it was 0.13 µM. Also, the selectivity ratio in data set [5] was > 300.

In the case of `CN1CCCN(S(=O)(=O)c2ccc(-c3ccc4c(Nc5ccc(OC(F)(F)F)cc5)ccnc4c3)cc2)CC1`, the EC50 in [6] was 0.13 µM; in data set [2], 0.22 µM; in data set [4] it was 0.14 µM; in data set [8] it was > 10 µM. Also, the selectivity ratio in [7] is 40; in [3], 7.3; in data set [5], 11.
